Data set [1] addresses T1, ACR-23 (Caenorhabditis elegans, UniProt G5EG88).
T1 sequence (G5EG88 20-545): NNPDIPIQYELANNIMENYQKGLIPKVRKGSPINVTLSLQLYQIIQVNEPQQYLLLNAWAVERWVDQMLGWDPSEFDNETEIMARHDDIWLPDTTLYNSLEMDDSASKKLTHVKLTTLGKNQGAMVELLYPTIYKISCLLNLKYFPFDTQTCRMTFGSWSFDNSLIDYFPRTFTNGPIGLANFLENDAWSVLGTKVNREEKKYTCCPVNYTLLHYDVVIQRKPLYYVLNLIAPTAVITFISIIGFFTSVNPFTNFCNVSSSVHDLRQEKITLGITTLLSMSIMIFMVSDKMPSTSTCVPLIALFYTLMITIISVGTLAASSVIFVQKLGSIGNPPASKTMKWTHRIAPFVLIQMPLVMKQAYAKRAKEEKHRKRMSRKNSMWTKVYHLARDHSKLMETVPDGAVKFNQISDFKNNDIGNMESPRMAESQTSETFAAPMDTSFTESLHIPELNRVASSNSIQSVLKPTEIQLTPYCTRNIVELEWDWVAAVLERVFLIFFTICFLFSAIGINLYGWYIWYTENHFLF
As to the kind of experiment: two-electrode voltage clamp in Xenopus oocytes expressing ACR-23. The format is cell-based. A general note: In two-electrode clamp one electrode senses voltage and the other passes current.

The next data set concerns the target T2, ACR-23(I301N) (Caenorhabditis elegans, UniProt G5EG88, I301N).
T2 sequence (G5EG88 20-545 I301N): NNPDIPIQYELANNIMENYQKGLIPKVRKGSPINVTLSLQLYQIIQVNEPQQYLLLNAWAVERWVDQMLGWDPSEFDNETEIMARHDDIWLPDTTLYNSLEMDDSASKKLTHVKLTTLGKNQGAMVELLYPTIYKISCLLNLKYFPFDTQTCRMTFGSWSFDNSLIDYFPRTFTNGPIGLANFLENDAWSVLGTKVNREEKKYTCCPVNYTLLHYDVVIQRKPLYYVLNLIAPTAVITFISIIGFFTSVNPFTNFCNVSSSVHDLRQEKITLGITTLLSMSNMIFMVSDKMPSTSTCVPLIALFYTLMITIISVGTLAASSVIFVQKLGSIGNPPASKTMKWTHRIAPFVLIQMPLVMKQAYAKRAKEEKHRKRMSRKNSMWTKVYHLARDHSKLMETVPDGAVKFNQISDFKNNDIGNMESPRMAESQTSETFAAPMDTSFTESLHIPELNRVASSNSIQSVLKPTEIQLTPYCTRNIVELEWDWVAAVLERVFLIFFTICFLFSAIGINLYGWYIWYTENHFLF
Described as above. The format is cell-based.

The target in data set [2] is T1, ACR-23. As to the kind of experiment: two-electrode voltage clamp in Xenopus oocytes. Type of data set: cell-based.
Substrate in data set [3]: C[N+](C)(C)CC(=O)O
As to the kind of experiment: cells, lysate or membranes. As to conditions: Na+ and Cl−.

The values below come from paper PMC3955162 (Nature neuroscience, 2013).

Take `C[N+](C)(C)CC(=O)O` [betaine, N, N, N-trimethylglycine]: the EC50 at ACR-23 [1] is 1400 µM; on ACR-23(I301N), 166 µM.

Turning to `C[C@](C#N)(COc1cc(C#N)ccc1C(F)(F)F)NC(=O)c1ccc(SC(F)(F)F)cc1` [monepantel], the “two-electrode voltage clamp in Xenopus oocytes; potentiation of 1 mM betaine cur” value at ACR-23 [2] amounted to 300 pM.

B1: SNF-3 (Caenorhabditis elegans) (protein)
chain: MGTSEHVPLPTDEAKAKELEQSQHSEEPDRGQWTGKFDFLMSMVAYAVGLGNVWRFPYLCYKNGGGSFLVVYMIFFCLAAVPIFLMEVTVGQYLQKGAMEMWLMCPLFRGVGIGNVVIAFMCIAYFCVIVAWAMFYMISSIAWVFPWETCNNYWNDATCVTGKENFTELARIKALVASAGGHTQTSVEQFWEKRVLHDTGDISEFGGIQWELFFIMAAAWLIVYFALWKGITQARKFVYFCALFPYVLIFILLIRGLTLEGAGTGIYFYLKPNATRLLDTAVWKDAGTQVFYSYGVGFGALIALGSHNKFNHNCFKDAITMCFINGCTSITAGFAVFSILGYMSHVAQKDISEIVKPGVGLAFLAYPEVASNLPMKQVFAVLFFLMITILGLDSQVCMMEGLFTALEDAFPILRKYKKQSLGIFCLFFFCIGIPMVTHSGSHWLTLFDAYGASGYALLFVVFFEVVGLAYGFGAHNIRKALHEMIGVTLPKGIEYVWKFCAPATSLVLFVFCVVYYHPVKYPDGKDFPFWANAFGWFLSSCSMVVIPGYAIYYLFFTNKHLTLKERVRKGLNLDGSFESPAKKNLVNNAEELKFIESSSQ
For the molecule B1, the Km in data set [3] is reported as 320 ± 50 µM.

What is called EC50 is the concentration giving half of the maximal effect. For orientation: Km means the concentration of substrate that gives half-maximal velocity.
